SMILES strings stand for the structures. Where a name gives a salt, the structure may show the parent alone. Where a SMILES comes first, the peptide text is derived from it. [ ]: non-standard residue; d: D form. Arg(Me) = CNC(=N)NCCC[C@H](N)C(=O)O; d4Pal = N[C@H](Cc1ccncc1)C(=O)O; azaGly = NNC(=O)O

Among the data in ChEMBL document CHEMBL5608109, “Hepatotoxicity screening of Donated Chemical Probes” (2024) are viability values, retold here.

The test system of this assay is Hepatocyte spheroids. Description: This assay model using primary human hepatocyte (PHH) spheroids, which are cultured in Williams E medium. After spheroid formation, cells are exposed to compounds in an FBS-free culture medium. […] Imaging is performed on an Opera Phenix High-Content Screening System, allowing quantification of proliferation as a readout for evaluating the effects of chemical probes on hepatocyte regeneration. Type of assay: functional. As to conditions: read-out: Cell Viability; for viability at 1 µM: Concentration 1 uM; for viability at 10 µM: Concentration 10 uM; for viability at 0.1 µM: Concentration 0.1 uM; for viability at 20 µM: Concentration 20 uM.

Regarding `CC(=O)N1CCC(c2ccc(C(=O)NC(=N)N)cc2C(F)(F)F)CC1` [BI 9627], the viability (as a rule, a read-out of living cells in per cent, often relative to untreated cells) at 1 µM was 78.4% (non-toxic) and the viability at 10 µM was 106% (non-toxic). For the compound `CO[C@H]1CC[C@H](CNc2ccc(S(=O)(=O)NC(=O)c3ccc(N4CCN(CC5=C(c6ccc(Cl)cc6)CC(C)(C)CC5)CC4)cc3Oc3cnc4[nH]ccc4c3)cc2[N+](=O)[O-])CC1` [A-1211212], the viability at 1 µM is reported as 130% (non-toxic) and the viability at 10 µM was 126% (non-toxic). On the same counts, the results for `CC1=C(C#N)C(c2ccc3[nH]nc(C)c3c2)C(C#N)=C(C)N1` [BAY-474] are 99.5% (non-toxic) and 111% (non-toxic). Regarding `CCC(=O)N[C@H]1CC[C@@H](C(=O)N(C)c2ccc(-c3nc4ccccc4o3)cc2)C1` [BI 99179], the viability at 1 µM was 81.6% (non-toxic) and the viability at 10 µM is 55.6% (toxic). For `C[C@H](NC(=O)c1cnc2n1[C@](C)(Cc1ccc(C#N)cc1)C(=O)N2c1cc(Cl)c(F)c(Cl)c1)C(=O)NC1(c2ccccn2)CC1` [BI 1950], the viability at 1 µM is given as 110% (non-toxic) and the viability at 10 µM is listed as 121% (non-toxic). Regarding `CS(=O)(=O)N1CCCC(NC(=O)[C@H](CCC2CCCCC2)NC(=O)c2ccc(CNC(=O)c3cnc4ccccn34)cc2)C1` (some centres undefined) [SR-302], the viability at 0.1 µM was 134% (non-toxic) and the viability at 1 µM is 128% (non-toxic). In the case of `CN(C)CCCN1c2ccccc2Sc2ccc(Cl)cc21` [CHLORPROMAZINE HYDROCHLORIDE], the viability at 20 µM is 0.683% (toxic). Consider `Cc1c(NC(=O)COc2ccc(Cl)cc2C(=O)c2cc(F)cc(C(F)(F)F)c2)ccc(C(=O)O)c1F` [BI 2540], for which the viability at 1 µM was 95.6% (non-toxic) and the viability at 10 µM is on record as 93.1% (non-toxic). As to `O=c1nc(-c2ccccn2)sc2ccccc12` [BTZO-1], the viability at 1 µM is recorded as 99.7% (non-toxic) and the viability at 10 µM is recorded as 73.5% (non-toxic). For `O=C(O)c1cc(-c2ccc(C3CCNCC3)cc2)c2ccc(-c3ccc(C(F)(F)F)cc3)cc2c1`, the viability at 1 µM was 91.3% (non-toxic) and the viability at 10 µM is recorded as 1.07% (toxic). Take `N#CN1CC[C@H](C(=O)Nc2nc3c(s2)CN(C(=O)CN=[N+]=[N-])CC3)C1` [8RK64]: the viability at 1 µM was 97.6% (non-toxic) and the viability at 10 µM is 70.7% (toxic). As for `c1ccc2oc(-c3csc(C4CCN(Cc5nc6ncccc6[nH]5)CC4)n3)cc2c1`, the viability at 1 µM is given as 88.5% (non-toxic) and the viability at 10 µM is given as 35.4% (toxic). As to `O=C1CCc2cc(Nc3cc(OC4CCOCC4)c([N+](=O)[O-])cc3Cl)ccc2N1`, the viability at 1 µM is reported as 147% (non-toxic) and the viability at 10 µM was 76% (non-toxic). On the same counts, the results for `CC(C)(O)[C@H](F)CN1Cc2cc(NC(=O)c3cnn4cccnc34)c(N3CCOCC3)cc2C1=O` are 118% (non-toxic) and 90.2% (non-toxic). Turning to `C[C@H](c1ccnc(Nc2nc3ccc(-c4cc(N(C)C)ncn4)cc3[nH]2)c1)N1CCN(C(=O)CC(F)(F)F)CC1` [BAY-985], the viability at 1 µM is on record as 68.2% (non-toxic) and the viability at 10 µM is 38.1% (toxic). Take `O=C(Nc1cnc(Oc2ccc(F)cc2)nc1)N1CCc2ncccc2[C@@H]1c1ccc(F)cc1` [BAY-899]: the viability at 1 µM was 92.3% (non-toxic) and the viability at 10 µM is 106% (non-toxic).

For `O=C(NCc1ncc(C(F)(F)F)cc1Cl)c1ccc2c(c1)C1(CCS(=O)(=O)CC1)[C@H](C1CC1)N2S(=O)(=O)c1ccc(F)cc1` [BAY-784], the viability at 0.1 µM was 103% (non-toxic) and the viability at 1 µM is on record as 107% (non-toxic). Take `COc1ccc2c(c1)O[C@@H](c1ccc(OC)c(OC)c1)C[C@H]2NC(=O)C1(c2ccc3c(c2)OC(F)(F)O3)CC1` [A-1596586]: the viability at 1 µM is recorded as 104% (non-toxic) and the viability at 10 µM is 88.5% (non-toxic).

As for `CCc1ccccc1C(=O)Nc1n[nH]c2c(C)c(F)c(C3C(C#N)=C(C)N(C)C(C)=C3C#N)cc12` [BAY-3827], the viability at 1 µM is 110% (non-toxic) and the viability at 10 µM is listed as 84.2% (non-toxic). As for `O=C(O)[C@H]1[C@H](Cn2nnc3ccccc3c2=O)CC[C@@H]1C(=O)c1ccc(OCCC2CCOCC2)cc1` [BAY-7598], the viability at 0.1 µM is recorded as 96.9% (non-toxic) and the viability at 1 µM is listed as 97.3% (non-toxic).

Consider `O=C(NCCN1CCOCC1)c1ccc2c(c1)C(=O)c1ccc(Nc3ccc(F)c(NC(=O)c4ccccc4)c3)cc1CC2` [FS-694], for which the viability at 1 µM is given as 74.8% (non-toxic) and the viability at 10 µM was 84.2% (non-toxic). With `Cc1ccc2nc(CNCCCOc3ccccc3)cc(O)c2c1` [UCSF924], the viability at 1 µM is given as 164% (non-toxic) and the viability at 10 µM was 147% (non-toxic). On to `CN([C@@H]1CCc2c(CC(=O)O)c3ccccc3n2C1)S(=O)(=O)c1ccc(F)cc1` [MK-7246], for which the viability at 1 µM was 107% (non-toxic) and the viability at 10 µM is listed as 111% (non-toxic). Regarding `CCNC(=O)c1cc2c(N3CCOCC3C)ccnc2[nH]1` (centres undefined), the viability at 1 µM is on record as 90.1% (non-toxic) and the viability at 10 µM was 74.9% (non-toxic).

`Cc1cc(C)c(-n2ccn3nc(-c4cccnc4)cc23)cc1NC(=O)c1cc(C#N)cc(S(F)(F)(F)(F)F)c1` [BAY-826]: the viability at 0.1 µM is listed as 149% (non-toxic) and the viability at 1 µM is 144% (non-toxic). Regarding `c1ccc(N2CCN(Cc3nc4ccccc4[nH]3)CC2)nc1`, the viability at 1 µM is reported as 117% (non-toxic) and the viability at 10 µM was 110% (non-toxic). In the case of `CN1C(=O)[C@@H](N2CCc3c(nn(Cc4ccccc4)c3Br)C2=O)COc2ccccc21` [TP-030-2], the viability at 0.1 µM is given as 69.5% (toxic) and the viability at 1 µM is given as 56.7% (toxic). On to `CNC(=N)NCCC[C@H](NC(=O)[C@H](CC(C)C)NC(=O)NNC(=O)[C@H](Cc1ccccc1)NC(=O)[C@H](CO)NC(=O)[C@H](CC(N)=O)NC(=O)[C@@H](Cc1ccncc1)NC(=O)[C@H](N)Cc1ccc(O)cc1)C(=O)N[C@@H](Cc1ccccc1)C(N)=O` [KISS1-305] (H-[dY][d4Pal]NSF[azaGly]L[Arg(Me)]F-NH2), for which the viability at 0.1 µM is recorded as 107% (non-toxic) and the viability at 1 µM was 98.4% (non-toxic). As to `CC[C@H](CC(=O)O)n1c(=O)c2ncccc2n(Cc2cn(C)c3cc(C)cc(C)c23)c1=O` [BI-1942], the viability at 1 µM was 53.2% (toxic) and the viability at 10 µM was 65.2% (toxic). On the same counts, the results for `Cn1c(C2(NC(=O)c3ccc4c(C5CCCC5)c(-c5ncc(Br)cn5)n(C)c4c3)CCC2)nc2ccc(/C=C/C(=O)O)cc21` [DELEOBUVIR] are 135% (non-toxic) and 157% (non-toxic). Turning to `CN1CCN(c2cnc3c(C4CCN(C(=O)c5ccc(OC(F)(F)F)cc5N)CC4)ncnc3c2)CC1` [BAY-885], the viability at 1 µM is reported as 99.8% (non-toxic) and the viability at 10 µM is on record as 98.6% (non-toxic). For `O=C1c2ccc(Nc3ccc(F)cc3F)cc2CCc2ccc(OC[C@H](O)CO)cc21` [Skepinone-L], the viability at 1 µM is 94.6% (non-toxic) and the viability at 10 µM is reported as 16.2% (toxic). For `Cc1cc(-n2nc(Cc3cc(F)cc(C(F)(F)F)c3)nc2C)ccc1C(N)=O` [TP-024], the viability at 1 µM was 111% (non-toxic) and the viability at 10 µM is recorded as 92% (non-toxic). Regarding `COCc1nc2cnc3cc(-c4c(C)noc4C)c(OC[C@H]4CCNC4)cc3c2n1[C@H](C)c1ccccc1` [GSK778], the viability at 1 µM is reported as 118% (non-toxic) and the viability at 10 µM is listed as 64% (toxic). With `C[C@@H](NC(=O)Nc1cc2[nH]ncc2c(CO)n1)c1ccccc1` [ERKi], the viability at 1 µM was 75% (non-toxic) and the viability at 10 µM is reported as 75.2% (non-toxic).

For the compound `O=C(NNS(=O)(=O)c1ccccc1F)c1cc(F)cc(-c2ccccn2)c1` [WM-1119], the viability at 1 µM is 107% (non-toxic) and the viability at 10 µM is listed as 75.2% (non-toxic). For the compound `CC1CCN(c2ccnc(NCc3cn(C)cn3)n2)CC1` [TP-040], the viability at 1 µM was 127% (non-toxic) and the viability at 10 µM is 133% (non-toxic).

On to `Clc1cccc(-c2nnnn2Cc2cccnc2)c1Cl`, for which the viability at 1 µM was 97.1% (non-toxic) and the viability at 10 µM is recorded as 98.7% (non-toxic). With `Nc1nc(NCc2ccccc2)nc(-c2ccccc2CO)n1` [Ogerin], the viability at 1 µM is reported as 94.3% (non-toxic) and the viability at 10 µM is reported as 115% (non-toxic). In the same order, the values of `CC(C)(O)c1cncc(-c2nc3ccc(F)cc3n2C2CC2)c1` [MSD-CYP11B2] are 113% (non-toxic) and 96.6% (non-toxic). For `CS(=O)(=O)c1cc(C2(NC(=O)c3cncc4c3cnn4-c3ccc(F)cc3)CC2)ccn1` [BI 639667], the viability at 20 µM was 59.6% (toxic). Besides, for the setting “Concentration 2 uM”, the viability at 2 µM is 60.2% (toxic).

With `CNC(=O)c1cc(C(=O)N[C@H]2[C@@H]3COC[C@@H]32)cc2c1O[C@H](CF)[C@H]2c1ccccc1` [GSK973], the viability at 1 µM is recorded as 103% (non-toxic) and the viability at 10 µM is reported as 88.7% (non-toxic). In the case of `O[C@]1(C(F)(F)F)CCCC[C@H]1Nc1ccc(F)cc1` [BAY-390], the viability at 0.1 µM is given as 99.2% (non-toxic) and the viability at 1 µM is on record as 96.9% (non-toxic).

As for `CNC(=O)c1cc(C(=O)NC2CC2)cn(Cc2ccccc2)c1=O` [GSK620], the viability at 1 µM is 117% (non-toxic) and the viability at 10 µM was 85.9% (non-toxic). Regarding `COc1cccc(CNC(=O)c2nc3scc(COCc4ccc(C(=O)O)cc4)c3c(=O)[nH]2)c1` [T-26c], the viability at 0.1 µM is on record as 125% (non-toxic) and the viability at 1 µM is listed as 99.4% (non-toxic).
